Where two headings read alike, the source gives them in different places.
What was measured:
KDR = KDR (Homo sapiens, UniProt P35968); assay: cell-based; conditions: read-out: % Inhibition of KDR kinase autophosphorylation in KDR15 cells, compound conc. 1000 nM
[1] = biological target: T1, human KDR (VEGF-receptor-2) (Homo sapiens, UniProt P35968); assay: KDR kinase enzyme assay (DELFIA, KDR-IC-Flag, poly(Glu4-Tyr) peptide); type: biochemical; conditions: read-out: % Inhibition; for inhibition at 1 µM: Concentration 1000 nM; for inhibition at 0.1 µM: Concentration 100 nM
T1 construct: beginning at Met-806; (5′-ATG GAT CCA GAT GM CTC CCA TTG) and ending at Val-1356; made in house
T1 sequence (P35968 806-1356): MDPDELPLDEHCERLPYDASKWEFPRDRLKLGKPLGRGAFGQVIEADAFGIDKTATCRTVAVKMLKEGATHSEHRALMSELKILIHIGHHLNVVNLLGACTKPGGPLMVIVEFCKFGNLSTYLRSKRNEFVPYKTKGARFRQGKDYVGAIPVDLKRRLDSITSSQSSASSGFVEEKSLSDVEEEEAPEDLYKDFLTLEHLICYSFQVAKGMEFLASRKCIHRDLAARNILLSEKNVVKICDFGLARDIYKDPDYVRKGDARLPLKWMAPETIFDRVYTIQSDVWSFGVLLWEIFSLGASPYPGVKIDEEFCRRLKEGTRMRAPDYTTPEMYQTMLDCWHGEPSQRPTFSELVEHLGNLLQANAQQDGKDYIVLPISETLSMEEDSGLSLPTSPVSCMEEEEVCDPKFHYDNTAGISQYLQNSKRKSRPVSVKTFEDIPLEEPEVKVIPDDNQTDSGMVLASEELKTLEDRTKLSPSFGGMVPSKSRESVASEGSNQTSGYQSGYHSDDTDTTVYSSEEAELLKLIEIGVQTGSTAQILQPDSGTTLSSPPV

[2] = tested on: Human umbilical vein endothelial cells (HUVEC); assay: HUVEC proliferation assay, VEGF-dependent growth ([3H]-thymidine incorporation); type: cell-based; conditions: Homo sapiens, HUVEC
Summary of the method: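 HUVEC seeded 4000 cells/well, attached overnight, then given compound in serum/VEGF-free EBM plus 50 ng/ml VEGF (final); parallel plates used EGM2 with 2% serum lacking VEGF. Incubation 4-5 days at 37° C. DNA synthesis measured by 5 h [3H]-thymidine (1 μCi/well) incorporation, scintillation-counted.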

Chain of KDR (P35968 20-1356): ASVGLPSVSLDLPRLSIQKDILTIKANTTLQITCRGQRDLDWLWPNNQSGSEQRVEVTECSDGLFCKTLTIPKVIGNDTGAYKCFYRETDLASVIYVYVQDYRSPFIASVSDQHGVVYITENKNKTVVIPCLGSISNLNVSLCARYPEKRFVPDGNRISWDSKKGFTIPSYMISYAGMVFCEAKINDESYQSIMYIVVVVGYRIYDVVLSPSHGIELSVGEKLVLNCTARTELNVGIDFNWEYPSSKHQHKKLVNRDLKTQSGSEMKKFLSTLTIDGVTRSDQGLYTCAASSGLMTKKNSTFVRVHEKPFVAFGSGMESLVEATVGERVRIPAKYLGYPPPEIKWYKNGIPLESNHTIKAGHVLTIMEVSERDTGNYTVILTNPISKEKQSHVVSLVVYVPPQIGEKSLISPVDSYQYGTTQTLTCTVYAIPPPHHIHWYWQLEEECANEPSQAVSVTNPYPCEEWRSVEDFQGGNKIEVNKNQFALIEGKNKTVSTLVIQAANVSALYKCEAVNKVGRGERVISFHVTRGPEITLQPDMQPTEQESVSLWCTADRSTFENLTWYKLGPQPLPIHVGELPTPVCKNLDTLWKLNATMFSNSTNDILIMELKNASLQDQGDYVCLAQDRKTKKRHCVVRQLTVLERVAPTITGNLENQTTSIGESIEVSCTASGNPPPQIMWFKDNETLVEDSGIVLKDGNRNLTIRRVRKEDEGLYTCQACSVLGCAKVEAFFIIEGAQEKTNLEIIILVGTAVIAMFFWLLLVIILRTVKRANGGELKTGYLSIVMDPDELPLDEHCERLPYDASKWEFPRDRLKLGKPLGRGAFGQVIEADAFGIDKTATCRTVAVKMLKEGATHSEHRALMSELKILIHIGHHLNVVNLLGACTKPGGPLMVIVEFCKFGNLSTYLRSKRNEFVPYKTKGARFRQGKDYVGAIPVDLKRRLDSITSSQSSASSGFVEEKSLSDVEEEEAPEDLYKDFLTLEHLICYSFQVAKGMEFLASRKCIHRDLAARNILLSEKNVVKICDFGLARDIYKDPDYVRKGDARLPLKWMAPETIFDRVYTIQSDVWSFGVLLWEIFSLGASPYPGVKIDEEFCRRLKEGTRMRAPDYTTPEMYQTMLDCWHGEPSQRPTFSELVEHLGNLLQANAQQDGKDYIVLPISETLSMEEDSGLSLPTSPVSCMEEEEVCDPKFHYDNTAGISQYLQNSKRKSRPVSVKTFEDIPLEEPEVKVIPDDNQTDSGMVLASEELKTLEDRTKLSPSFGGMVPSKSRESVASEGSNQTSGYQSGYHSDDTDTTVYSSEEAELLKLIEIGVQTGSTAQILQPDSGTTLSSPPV

Row | melting point | inhibition at 1 µM (KDR) | inhibition at 1 µM ([1]; ATP conc. 10 μM) | inhibition at 1 µM ([1]; ATP conc. 1000 μM) | inhibition at 0.1 µM ([1]; ATP conc. 10 μM) | Structure (SMILES) | inhibition at 0.1 µM ([2]; conc. 100 nM) | inhibition at 1 µM ([2]; conc. 1000 nM) | inhibition at 10 µM ([2]; conc. 10000 nM)
1 | 249 to 250 °C | 4% | 88% | 82% |  | COc1cc2ncnc(NC3=CC(=O)C(N4CCOCC4)=CC3=O)c2cc1OC [Example 84, 2-[(6,7-dimethoxyquinazolin-4-yl)amino]-5-morpholin-4-ylbenzo-1,4-quinone] |  |  | 
2 | 204 to 206 °C |  | 62% | 64% | 20% | COc1cc2ncnc(NC3=CC(=O)C(N(C)c4ccccc4)=CC3=O)c2cc1OC [Example 85, 2-[(6,7-dimethoxyquinazolin-4-yl)amino]-5-[methyl(phenyl)amino]benzo-1,4-quinone] |  |  | 
3 | 226 to 227 °C |  | 72% | 85% | 19% | COc1cc2ncnc(NC3=CC(=O)C(N4CCCCC4)=CC3=O)c2cc1OC [Example 87, 2-[(6,7-dimethoxyquinazolin-4-yl)amino]-5-piperidin-1-ylbenzo-1,4-quinone] |  |  | 
4 | 245 to 250 °C | 32% | 63% | 48% | 28% | COc1cc2ncnc(NC3=CC(=O)C(N(C)C)=CC3=O)c2cc1OC [Example 88, 2-[(6,7-dimethoxyquinazolin-4-yl)amino]-5-(dimethylamino)benzo-1,4-quinone] |  |  | 
5 | 283 to 285 °C |  | 18% | -12% | 11% | CNC1=CC(=O)C(Nc2ncnc3cc(OC)c(OC)cc23)=CC1=O [Example 89, 2-[(6,7-dimethoxyquinazolin-4-yl)amino]-5-(methylamino)benzo-1,4-quinone] |  |  | 
6 | 171 to 172 °C |  | 93% | 97% | 92% | COCCOc1cc2ncnc(NC3=CC(=O)C(Oc4ccc(C)cc4)=CC3=O)c2cc1OC [Example 92, 2-{[6-methoxy-7-(2-methoxyethoxy)quinazolin-4-yl]amino}-5-(4-methylphenoxy)benzo-1,4-quinone] |  |  | 
7 | 200 to 210 °C |  |  |  |  | COCCOc1cc2ncnc(NC3=CC(=O)C(Br)=CC3=O)c2cc1OC [Example 231, 2-bromo-5-{[6-methoxy-7-(2-methoxyethoxy)quinazolin-4-yl]amino}benzo-1,4-quinone] |  |  | 
8 | 109 to 115 °C |  |  |  |  | COCCOc1cc2ncnc(NC3=CC(=O)C(Oc4ccc(-n5ccnc5)cc4)=CC3=O)c2cc1OCCOC [Example 341, 2-{[6,7-bis(2-methoxyethoxy)quinazolin-4-yl]amino}-5-[4-(1H-imidazol-1-yl)phenoxy]benzo-1,4-quinone] |  |  | 
9 | 215 to 220 °C |  |  |  |  | COc1cc2c(NC3=CC(=O)C(Cl)=CC3=O)ncnc2cc1OCC1CCCCO1 (centres unmarked) [Example 345, 2-chloro-5-{[6-methoxy-7-(tetrahydro-2H-pyran-2-ylmethoxy)quinazolin-4-yl]amino}benzo-1,4-quinone] |  |  | 

Row | Structure (SMILES) | melting point | inhibition at 1 µM (KDR) | inhibition at 1 µM ([1]; ATP conc. 10 μM) | inhibition at 1 µM ([1]; ATP conc. 1000 μM) | inhibition at 0.1 µM ([1]; ATP conc. 10 μM) | inhibition at 0.1 µM ([2]; conc. 100 nM) | inhibition at 1 µM ([2]; conc. 1000 nM) | inhibition at 10 µM ([2]; conc. 10000 nM)
10 | COCCOc1cc2ncnc(NC3=CC(=O)C(N4CCCCC4)=CC3=O)c2cc1OC [Example 101, 2-{[6-methoxy-7-(2-methoxyethoxy)quinazolin-4-yl]amino}-5-piperidin-1-yl-benzo-1,4-quinone] | 197 to 200 °C |  |  |  |  | 12% | 36% | 94%
